These results are taken from patent US7507717B2 (Xenome Ltd., priority 2002, dated 2009).

Residues, ends and D or L forms follow the SMILES beside them.

T1 sequence (P23975 whole entry): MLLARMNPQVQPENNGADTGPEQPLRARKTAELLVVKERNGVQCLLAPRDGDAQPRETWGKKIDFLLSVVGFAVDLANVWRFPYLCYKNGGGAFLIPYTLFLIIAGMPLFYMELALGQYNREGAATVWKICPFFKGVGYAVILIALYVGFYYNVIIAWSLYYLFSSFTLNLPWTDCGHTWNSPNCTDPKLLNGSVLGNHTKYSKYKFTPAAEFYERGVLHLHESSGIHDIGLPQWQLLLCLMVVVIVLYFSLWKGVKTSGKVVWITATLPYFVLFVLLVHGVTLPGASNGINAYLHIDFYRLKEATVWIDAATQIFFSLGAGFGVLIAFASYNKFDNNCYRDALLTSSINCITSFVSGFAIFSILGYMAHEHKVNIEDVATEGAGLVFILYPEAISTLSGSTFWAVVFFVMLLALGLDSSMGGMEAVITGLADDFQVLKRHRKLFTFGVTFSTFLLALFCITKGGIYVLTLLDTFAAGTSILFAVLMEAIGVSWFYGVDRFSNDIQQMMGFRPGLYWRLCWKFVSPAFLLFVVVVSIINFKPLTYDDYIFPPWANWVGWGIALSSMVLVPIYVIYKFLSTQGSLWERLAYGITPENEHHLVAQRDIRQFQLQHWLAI

One test has as its target T1, human noradrenaline transporter (hNET) (Homo sapiens, UniProt P23975).
T1 construct: expressed in transfected cells; host or cells: COS-7 cells (ATCC), transient transfection with metafectene
The experiment in a line: biochemical.
Conditions: not given
In kind it is binding.
For the molecule YNGVCCGYILCHPC [compound 208], the “Av IC50 Displacement of 3H-nisoxetine from hNET” value (shortened to “Av IC50 Displacement”) is listed as −2.00.

Consider YNGVCCGYKDCHPC [compound 209], for which the “Av IC50 Displacement” value is reported as −2.00.

For the molecule YNGVCCGYKLCEPC [compound 210], the “Av IC50 Displacement” value is −2.00.

Still in this test, the particulars now being: Av IC50 Displacement of 3H-nisoxetine from hNET.
As a reminder, the IC50 is the point on the concentration scale where inhibition reaches its midpoint. A lower IC50 goes with greater potency. `CC(C)C[C@@H]1NC(=O)[C@H](CCCCN)NC(=O)[C@H](Cc2ccc(O)cc2)NC(=O)CNC(=O)[C@@H]2CSSC[C@H](NC1=O)C(=O)N[C@@H](Cc1c[nH]cn1)C(=O)N1CCC[C@H]1C(=O)N[C@H](C(N)=O)CSSC[C@H](NC(=O)[C@@H](NC(=O)CNC(=O)[C@@H](N)CC(N)=O)[C@@H](C)O)C(=O)N2` [compound 138] (HELM PEPTIDE1{N.G.T.C.C.G.Y.K.L.C.H.P.C.[am]}$PEPTIDE1,PEPTIDE1,4:R3-13:R3|PEPTIDE1,PEPTIDE1,5:R3-10:R3$$$V2.0) showed an IC50 of 2.29 µM.

In turn, `CC[C@H](C)[C@H](NC(=O)CNC(=O)[C@@H](N)CC(N)=O)C(=O)N[C@H]1CSSC[C@@H](C(N)=O)NC(=O)[C@@H]2CCCN2C(=O)[C@H](Cc2c[nH]cn2)NC(=O)[C@@H]2CSSC[C@H](NC1=O)C(=O)NCC(=O)N[C@@H](Cc1ccc(O)cc1)C(=O)N[C@@H](CCCCN)C(=O)N[C@@H](CC(C)C)C(=O)N2` [compound 125] (HELM PEPTIDE1{N.G.I.C.C.G.Y.K.L.C.H.P.C.[am]}$PEPTIDE1,PEPTIDE1,4:R3-13:R3|PEPTIDE1,PEPTIDE1,5:R3-10:R3$$$V2.0) gave an IC50 of 1.41 µM.

In the case of `CC(C)C[C@@H]1NC(=O)[C@H](CCCCN)NC(=O)[C@H](Cc2ccc(O)cc2)NC(=O)CNC(=O)[C@@H]2CSSC[C@H](NC1=O)C(=O)N[C@@H](CCCNC(=N)N)C(=O)N[C@@H](C)C(=O)N[C@H](C(N)=O)CSSC[C@H](NC(=O)[C@@H](NC(=O)CNC(=O)[C@H](CC(N)=O)NC(=O)[C@@H](N)Cc1c[nH]c3ccccc13)C(C)C)C(=O)N2` [compound 69] (HELM PEPTIDE1{W.N.G.V.C.C.G.Y.K.L.C.R.A.C.[am]}$PEPTIDE1,PEPTIDE1,5:R3-14:R3|PEPTIDE1,PEPTIDE1,6:R3-11:R3$$$V2.0), the IC50 was 0.219 µM.

Molecule `CC(C)C[C@@H]1NC(=O)[C@H](CCCCN)NC(=O)[C@H](Cc2ccc(O)cc2)NC(=O)CNC(=O)[C@@H]2CSSC[C@H](NC1=O)C(=O)N[C@@H](Cc1c[nH]cn1)C(=O)N1CCC[C@H]1C(=O)N[C@H](C(N)=O)CSSC[C@H](NC(=O)[C@@H](NC(=O)[C@H](CCCCN)NC(=O)[C@H](CC(N)=O)NC(=O)[C@@H](N)Cc1ccc(O)cc1)C(C)C)C(=O)N2` [compound 110] (HELM PEPTIDE1{Y.N.K.V.C.C.G.Y.K.L.C.H.P.C.[am]}$PEPTIDE1,PEPTIDE1,5:R3-14:R3|PEPTIDE1,PEPTIDE1,6:R3-11:R3$$$V2.0) had an IC50 of 0.977 µM.

`CC(C)C[C@H](NC(=O)CNC(=O)[C@H](CCCNC(=N)N)NC(=O)[C@@H](N)Cc1c[nH]c2ccccc12)C(=O)N[C@H]1CSSC[C@@H](C(N)=O)NC(=O)[C@H](C)NC(=O)[C@H](CCCNC(=N)N)NC(=O)[C@@H]2CSSC[C@H](NC1=O)C(=O)NCC(=O)N[C@@H](Cc1ccc(O)cc1)C(=O)N[C@@H](CCCCN)C(=O)N[C@@H](CC(C)C)C(=O)N2` [compound 78]: the IC50 was 0.275 µM.

For the molecule `CC(C)C[C@@H]1NC(=O)[C@H](CCCCN)NC(=O)[C@H](Cc2ccc(O)cc2)NC(=O)CNC(=O)[C@@H]2CSSC[C@H](NC1=O)C(=O)N[C@@H](Cc1c[nH]cn1)C(=O)N[C@@H](C)C(=O)N[C@H](C(N)=O)CSSC[C@H](NC(=O)[C@@H](NC(=O)CNC(=O)[C@@H](N)CC(N)=O)C(C)C)C(=O)N2` [compound 145] (HELM PEPTIDE1{N.G.V.C.C.G.Y.K.L.C.H.A.C.[am]}$PEPTIDE1,PEPTIDE1,4:R3-13:R3|PEPTIDE1,PEPTIDE1,5:R3-10:R3$$$V2.0), the IC50 is 2.95 µM.

As for `CC(C)C[C@@H]1NC(=O)[C@H](CCCCN)NC(=O)[C@H](Cc2ccc(O)cc2)NC(=O)CNC(=O)[C@@H]2CSSC[C@H](NC1=O)C(=O)N[C@@H](Cc1c[nH]c3ccccc13)C(=O)N1CCC[C@H]1C(=O)N[C@H](C(N)=O)CSSC[C@H](NC(=O)[C@@H](NC(=O)CNC(=O)[C@@H](N)CC(N)=O)C(C)C)C(=O)N2` [compound 59] (HELM PEPTIDE1{N.G.V.C.C.G.Y.K.L.C.W.P.C.[am]}$PEPTIDE1,PEPTIDE1,4:R3-13:R3|PEPTIDE1,PEPTIDE1,5:R3-10:R3$$$V2.0), the IC50 is 0.174 µM.

`CC(C)C[C@@H]1NC(=O)[C@H](CCCCN)NC(=O)[C@H](Cc2ccc(O)cc2)NC(=O)CNC(=O)[C@@H]2CSSC[C@H](NC1=O)C(=O)N[C@@H](Cc1c[nH]cn1)C(=O)N1CCC[C@H]1C(=O)N[C@H](C(N)=O)CSSC[C@H](NC(=O)[C@@H](NC(=O)CNC(=O)[C@@H](N)CCCNC(=N)N)C(C)C)C(=O)N2` [compound 98] had an IC50 of 0.513 µM.

With `CC(C)C[C@@H]1NC(=O)[C@H](C)NC(=O)[C@H](Cc2ccc(O)cc2)NC(=O)CNC(=O)[C@@H]2CSSC[C@H](NC1=O)C(=O)N[C@@H](Cc1c[nH]cn1)C(=O)N1CCC[C@H]1C(=O)N[C@H](C(N)=O)CSSC[C@H](NC(=O)[C@@H](NC(=O)CNC(=O)[C@@H](N)CC(N)=O)C(C)C)C(=O)N2` [compound 172], the IC50 was 10.7 µM.

In the case of `CC(C)C[C@H](NC(=O)CNC(=O)[C@H](CCCNC(=N)N)NC(=O)[C@@H](N)Cc1c[nH]c2ccccc12)C(=O)N[C@H]1CSSC[C@@H](C(N)=O)NC(=O)CNC(=O)[C@H](CCCNC(=N)N)NC(=O)[C@@H]2CSSC[C@H](NC1=O)C(=O)NCC(=O)N[C@@H](Cc1ccc(O)cc1)C(=O)N[C@@H](CCCCN)C(=O)N[C@@H](CC(C)C)C(=O)N2` [compound 64] (HELM PEPTIDE1{W.R.G.L.C.C.G.Y.K.L.C.R.G.C.[am]}$PEPTIDE1,PEPTIDE1,5:R3-14:R3|PEPTIDE1,PEPTIDE1,6:R3-11:R3$$$V2.0; N-terminus and C-terminus assumed), the IC50 was 0.191 µM.

For the molecule `CC(C)C[C@@H]1NC(=O)[C@H](CCCCN)NC(=O)[C@H](Cc2ccc(O)cc2)NC(=O)CNC(=O)[C@@H]2CSSC[C@H](NC1=O)C(=O)N[C@@H](CCCNC(=N)N)C(=O)N[C@@H](C)C(=O)N[C@H](C(N)=O)CSSC[C@H](NC(=O)[C@@H](NC(=O)CNC(=O)[C@H](CC(N)=O)NC(=O)[C@@H](N)Cc1ccc(O)cc1)C(C)C)C(=O)N2` [compound 81], the IC50 is 0.295 µM.

On to `CC(C)C[C@@H]1NC(=O)[C@H](CCCCN)NC(=O)[C@H](Cc2ccc(O)cc2)NC(=O)CNC(=O)[C@@H]2CSSC[C@H](NC1=O)C(=O)N[C@@H](Cc1c[nH]cn1)C(=O)N[C@@H](Cc1ccc(O)cc1)C(=O)N[C@H](C(N)=O)CSSC[C@H](NC(=O)[C@@H](NC(=O)CNC(=O)[C@@H](N)CC(N)=O)C(C)C)C(=O)N2` [compound 165], for which the IC50 was 7.08 µM.

As to `CC[C@H](C)[C@H](NC(=O)CN)C(=O)N[C@@H](CC(C)C)C(=O)N[C@@H](CCCNC(=N)N)C(=O)N[C@@H](CC(N)=O)C(=O)NCC(=O)N[C@H](C(=O)N[C@H]1CSSC[C@@H](C(N)=O)NC(=O)[C@@H]2CCCN2C(=O)[C@H](Cc2c[nH]cn2)NC(=O)[C@@H]2CSSC[C@H](NC1=O)C(=O)NCC(=O)N[C@@H](Cc1ccc(O)cc1)C(=O)N[C@@H](CCCCN)C(=O)N[C@@H](CC(C)C)C(=O)N2)C(C)C` [compound 105] (HELM PEPTIDE1{G.I.L.R.N.G.V.C.C.G.Y.K.L.C.H.P.C.[am]}$PEPTIDE1,PEPTIDE1,8:R3-17:R3|PEPTIDE1,PEPTIDE1,9:R3-14:R3$$$V2.0), the IC50 is 0.759 µM.

Turning to `CC(C)C[C@@H]1NC(=O)[C@H](CCCCN)NC(=O)[C@H](Cc2ccc(O)cc2)NC(=O)CNC(=O)[C@@H]2CSSC[C@H](NC1=O)C(=O)N[C@@H](Cc1c[nH]cn1)C(=O)N[C@@H](C)C(=O)N[C@H](C(N)=O)CSSC[C@H](NC(=O)[C@@H](NC(=O)CNC(=O)[C@H](CCCNC(=N)N)NC(=O)[C@@H](N)Cc1c[nH]c3ccccc13)C(C)C)C(=O)N2` [compound 54], the IC50 was 0.158 µM.

In the case of `CC(C)C[C@@H]1NC(=O)[C@H](CCCCN)NC(=O)[C@H](Cc2ccc(O)cc2)NC(=O)CNC(=O)[C@@H]2CSSC[C@H](NC1=O)C(=O)N[C@@H](Cc1c[nH]cn1)C(=O)N1CCC[C@H]1C(=O)N[C@H](C(N)=O)CSSC[C@H](NC(=O)[C@@H](NC(=O)CNC(=O)[C@H](CC(N)=O)NC(=O)[C@@H](N)Cc1ccc(O)cc1)C(C)C)C(=O)N2` [compound 116], the IC50 is 1.12 µM.

In turn, `CC(C)C[C@@H]1NC(=O)[C@H](CCCCN)NC(=O)[C@H](Cc2ccc(O)cc2)NC(=O)CNC(=O)[C@@H]2CSSC[C@H](NC1=O)C(=O)N[C@@H](Cc1c[nH]cn1)C(=O)N1CCC[C@H]1C(=O)N[C@H](C(N)=O)CSSC[C@H](NC(=O)[C@@H](NC(=O)[C@H](CCCNC(=N)N)NC(=O)[C@H](CC(N)=O)NC(=O)[C@@H](N)Cc1ccc(O)cc1)C(C)C)C(=O)N2` [compound 118] (HELM PEPTIDE1{Y.N.R.V.C.C.G.Y.K.L.C.H.P.C.[am]}$PEPTIDE1,PEPTIDE1,5:R3-14:R3|PEPTIDE1,PEPTIDE1,6:R3-11:R3$$$V2.0) had an IC50 of 1.17 µM.

Molecule `CC(C)C[C@@H]1NC(=O)[C@H](CCCCN)NC(=O)[C@H](Cc2ccc(O)cc2)NC(=O)CNC(=O)[C@@H]2CSSC[C@H](NC1=O)C(=O)N[C@@H](Cc1c[nH]cn1)C(=O)N[C@@H](Cc1ccccc1)C(=O)N[C@H](C(N)=O)CSSC[C@H](NC(=O)[C@@H](NC(=O)CNC(=O)[C@@H](N)CC(N)=O)C(C)C)C(=O)N2` [compound 155] had an IC50 of 4.07 µM.

In turn, `CC(C)C[C@@H]1NC(=O)[C@H](Cc2c[nH]cn2)NC(=O)[C@H](Cc2ccc(O)cc2)NC(=O)CNC(=O)[C@@H]2CSSC[C@H](NC1=O)C(=O)N[C@@H](Cc1c[nH]cn1)C(=O)N1CCC[C@H]1C(=O)N[C@H](C(N)=O)CSSC[C@H](NC(=O)[C@@H](NC(=O)CNC(=O)[C@@H](N)CC(N)=O)C(C)C)C(=O)N2` [compound 181] (HELM PEPTIDE1{N.G.V.C.C.G.Y.H.L.C.H.P.C.[am]}$PEPTIDE1,PEPTIDE1,4:R3-13:R3|PEPTIDE1,PEPTIDE1,5:R3-10:R3$$$V2.0) gave an IC50 of 47.9 µM.

For `CC(C)C[C@@H]1NC(=O)[C@H](CCC(N)=O)NC(=O)[C@H](Cc2ccc(O)cc2)NC(=O)CNC(=O)[C@@H]2CSSC[C@H](NC1=O)C(=O)N[C@@H](Cc1c[nH]cn1)C(=O)N1CCC[C@H]1C(=O)N[C@H](C(N)=O)CSSC[C@H](NC(=O)[C@@H](NC(=O)CNC(=O)[C@@H](N)CC(N)=O)C(C)C)C(=O)N2` [compound 194] (HELM PEPTIDE1{N.G.V.C.C.G.Y.Q.L.C.H.P.C.[am]}$PEPTIDE1,PEPTIDE1,4:R3-13:R3|PEPTIDE1,PEPTIDE1,5:R3-10:R3$$$V2.0), the IC50 was 123 µM.
